Results as given in patent publication US8895602B1, “6-pyrazolylamido-3-substituted azabicyclo[3.1.0]hexane compounds as calcium channel inhibitors” (Korea Institute of Science and Technology, priority 2013, dated 2014).

Assays:
[1] = spinal nerve ligation model; cited from earlier work
[2] = tested on: human fibroblastoma (HT-1080) cells; assay: Anticancer screening, SRB assay, HT-1080; format: cell-based; settings: HT1080, 48 hours incubation, concentration not given
Description: (§1) Anticancer Effect Screening Test
(§2) All the cancer cells are human-derived tumor cells and were acquired from the Korean Cell Line Bank.
(§3) 2) Measurement of Anticancer Activity
(§4) After incubation in a CO2 incubator for 24 hours, the culture medium was removed and 100 μL of the test compound which was diluted 4-fold was added. After incubation for 48 hours, the cells were fixed by adding 100 μL of formalin solution. Then, the cells were washed 5 times with distilled water and dried at room temperature. After adding 100 μL of 0.4% SRB solution and keeping at room temperature for 30 minutes, the cells were washed 5 times with 1% acetic acid and dried at room temperature.
(§5) To evaluate the anticancer activity of the test compound against the cancer cells, the GI50 value was calculated according to Equation 1 or 2. Anticancer activity (%)=[…] Equation 1
(§6) In Equation 1, T0 represents the number of cells before adding the test compound and T2 represents the number of cells after adding the test compound and incubating for 48 hours. Anticancer activity (%)=[…] Equation 2
(§7) The inhibition of cancer cell growth by the test compound (% inhibition) was determined by data regression using the Lotus program from the values calculated according to Equation 1 and the IC50 value was calculated from the % inhibition.

[3] = tested on: human glioma (U87-MG) cells; assay: Anticancer screening, SRB assay, U87-MG; format: cell-based; settings: 48 hours incubation, concentration not given
Description: as §1, §2, §3, §4, §5, §6, §7

[4] = tested on: human prostate carcinoma (LNCaP) cells; assay: Anticancer screening, SRB assay, LNCaP; format: cell-based; settings: 48 hours incubation, concentration not given
Description: as §1, §2, §3, §4, §5, §6, §7

[5] = tested on: human esophageal carcinoma (KYSE410) cells; assay: Anticancer screening, SRB assay, KYSE410; format: cell-based; settings: KYSE410, 48 hours incubation, concentration not given
Description: as §1, §2, §3, §4, §5, §6, §7

[6] = tested on: human lung carcinoma (A-549) cells; assay: Anticancer screening, SRB assay, A-549; format: cell-based; settings: A 549, 48 hours incubation, concentration not given
Description: as §1, §2, §3, §4, §5, §6, §7

[7] = tested on: human breast cancer (MCF-7) cells; assay: Anticancer screening, SRB assay, MCF-7; format: cell-based; settings: MCF-7, 48 hours incubation, concentration not given
Description: as §1, §2, §3, §4, §5, §6, §7

[8] = tested on: human liver carcinoma (HepG2) cells; assay: Anticancer screening, SRB assay, HepG2; format: cell-based; settings: HepG2, 48 hours incubation, concentration not given
Description: as §1, §2, §3, §4, §5, §6, §7

[9] = target: T1, α1G T-type calcium channel (Homo sapiens, UniProt O43497); assay: Antagonistic activity against T-type calcium channel (FDSS6000 / whole-cell patch clamp in HEK293 cells), α1G; format: cell-based
T1 construct: host or cells: HEK293
T1 sequence (O43497 whole entry): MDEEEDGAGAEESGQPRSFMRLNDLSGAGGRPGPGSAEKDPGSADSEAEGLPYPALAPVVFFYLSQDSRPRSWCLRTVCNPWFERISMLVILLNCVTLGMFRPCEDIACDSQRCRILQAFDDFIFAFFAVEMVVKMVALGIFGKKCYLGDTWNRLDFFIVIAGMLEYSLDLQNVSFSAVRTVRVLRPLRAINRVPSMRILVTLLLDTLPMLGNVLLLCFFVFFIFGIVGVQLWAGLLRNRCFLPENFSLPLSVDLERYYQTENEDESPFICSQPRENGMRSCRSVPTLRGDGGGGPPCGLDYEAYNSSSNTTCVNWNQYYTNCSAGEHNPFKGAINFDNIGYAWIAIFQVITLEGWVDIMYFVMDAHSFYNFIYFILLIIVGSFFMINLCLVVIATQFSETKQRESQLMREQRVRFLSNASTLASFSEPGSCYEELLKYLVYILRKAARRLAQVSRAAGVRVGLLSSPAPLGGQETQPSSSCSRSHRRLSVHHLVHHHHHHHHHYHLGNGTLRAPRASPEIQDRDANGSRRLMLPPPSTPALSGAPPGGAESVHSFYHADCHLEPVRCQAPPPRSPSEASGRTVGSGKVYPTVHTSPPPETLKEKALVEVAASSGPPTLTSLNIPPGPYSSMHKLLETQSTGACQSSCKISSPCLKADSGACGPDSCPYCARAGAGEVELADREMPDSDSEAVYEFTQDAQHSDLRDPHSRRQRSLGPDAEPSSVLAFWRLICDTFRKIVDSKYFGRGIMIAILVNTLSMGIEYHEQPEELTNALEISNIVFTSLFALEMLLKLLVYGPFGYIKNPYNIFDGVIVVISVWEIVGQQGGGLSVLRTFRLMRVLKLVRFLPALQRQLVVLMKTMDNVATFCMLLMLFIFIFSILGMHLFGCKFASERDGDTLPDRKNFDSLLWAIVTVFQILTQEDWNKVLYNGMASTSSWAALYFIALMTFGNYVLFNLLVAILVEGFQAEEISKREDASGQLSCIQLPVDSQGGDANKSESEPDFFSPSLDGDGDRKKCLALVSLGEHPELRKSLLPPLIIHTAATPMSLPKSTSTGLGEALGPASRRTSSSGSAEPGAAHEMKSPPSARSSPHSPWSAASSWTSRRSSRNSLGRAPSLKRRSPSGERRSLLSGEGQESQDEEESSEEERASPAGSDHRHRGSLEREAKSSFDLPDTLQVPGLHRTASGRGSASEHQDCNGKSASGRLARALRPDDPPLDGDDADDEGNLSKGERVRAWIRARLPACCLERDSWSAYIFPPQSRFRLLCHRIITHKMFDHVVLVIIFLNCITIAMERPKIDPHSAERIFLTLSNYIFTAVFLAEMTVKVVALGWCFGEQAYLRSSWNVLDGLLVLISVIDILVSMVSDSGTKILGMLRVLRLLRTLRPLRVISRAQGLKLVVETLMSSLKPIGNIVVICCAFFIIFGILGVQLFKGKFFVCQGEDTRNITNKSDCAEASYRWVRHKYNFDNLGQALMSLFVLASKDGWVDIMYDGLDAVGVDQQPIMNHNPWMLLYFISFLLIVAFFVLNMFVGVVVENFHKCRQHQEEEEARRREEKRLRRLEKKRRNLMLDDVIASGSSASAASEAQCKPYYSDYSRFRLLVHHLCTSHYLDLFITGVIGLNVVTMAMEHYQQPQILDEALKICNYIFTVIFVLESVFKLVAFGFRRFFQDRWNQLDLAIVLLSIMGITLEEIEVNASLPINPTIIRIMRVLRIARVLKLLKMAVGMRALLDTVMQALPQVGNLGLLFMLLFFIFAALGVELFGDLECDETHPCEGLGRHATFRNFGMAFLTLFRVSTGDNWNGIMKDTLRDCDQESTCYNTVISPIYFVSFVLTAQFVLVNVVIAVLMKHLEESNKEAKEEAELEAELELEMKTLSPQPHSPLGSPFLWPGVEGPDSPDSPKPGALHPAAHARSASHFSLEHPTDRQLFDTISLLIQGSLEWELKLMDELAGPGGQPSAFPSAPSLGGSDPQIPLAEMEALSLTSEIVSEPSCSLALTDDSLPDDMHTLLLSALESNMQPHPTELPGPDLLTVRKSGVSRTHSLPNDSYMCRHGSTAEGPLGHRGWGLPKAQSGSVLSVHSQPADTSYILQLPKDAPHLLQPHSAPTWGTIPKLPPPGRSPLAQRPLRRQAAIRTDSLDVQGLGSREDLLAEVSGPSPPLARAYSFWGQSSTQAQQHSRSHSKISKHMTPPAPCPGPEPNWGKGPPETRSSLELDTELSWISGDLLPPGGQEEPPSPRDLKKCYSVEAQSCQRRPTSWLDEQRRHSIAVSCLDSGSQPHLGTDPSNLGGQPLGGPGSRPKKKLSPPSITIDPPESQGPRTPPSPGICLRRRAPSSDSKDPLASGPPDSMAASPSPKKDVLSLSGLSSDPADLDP
Description: (§8) Test of Antagonistic Activity Against T-Type Calcium Channel
Then, as secondary screening, the effective inhibitory concentration IC50 for human HEK293 cells was obtained by measuring the potential of Ca^2+.
1) Measurement of T-Type Calcium Channel Activity Using FDSS6000
Subsequently, 10 minutes prior to the FDSS6000 measurement, the cells were washed with HEPES buffer containing 10 mM CaCl2 once and the final volume was adjusted to 81 μL. Separately from the 96-well plate with the cells, two 96-well drug plates were prepared, one containing KCl (final concentration 75 mM) for activating the T-type calcium channel and the other containing the blocking agent (test compound). […] For the FDSS6000 measurement, after baseline recording for 20 seconds, the cells were pretreated with the test compound for 75 seconds and the change in intracellular calcium concentration induced by KCl was measured. The % inhibition by the test compound was calculated as integrated values of the 340/380 ratio relative to the untreated control group. […]
For calcium imaging, the cells were selectively exposed to light of excitation wavelengths (340 nm and 380 nm) with four xenon lamps installed in the FDSS6000 device using a computer-controlled filter wheel. The emitted fluorescence light that passed through a 515 nm long-pass filter was passed through a freezing CCD camera mounted in the device. […]

[10] = target: α1H T-type calcium channel (Homo sapiens, UniProt O95180); assay: Antagonistic activity against T-type calcium channel, α1H; format: cell-based
Sequence of α1H T-type calcium channel (O95180 whole entry): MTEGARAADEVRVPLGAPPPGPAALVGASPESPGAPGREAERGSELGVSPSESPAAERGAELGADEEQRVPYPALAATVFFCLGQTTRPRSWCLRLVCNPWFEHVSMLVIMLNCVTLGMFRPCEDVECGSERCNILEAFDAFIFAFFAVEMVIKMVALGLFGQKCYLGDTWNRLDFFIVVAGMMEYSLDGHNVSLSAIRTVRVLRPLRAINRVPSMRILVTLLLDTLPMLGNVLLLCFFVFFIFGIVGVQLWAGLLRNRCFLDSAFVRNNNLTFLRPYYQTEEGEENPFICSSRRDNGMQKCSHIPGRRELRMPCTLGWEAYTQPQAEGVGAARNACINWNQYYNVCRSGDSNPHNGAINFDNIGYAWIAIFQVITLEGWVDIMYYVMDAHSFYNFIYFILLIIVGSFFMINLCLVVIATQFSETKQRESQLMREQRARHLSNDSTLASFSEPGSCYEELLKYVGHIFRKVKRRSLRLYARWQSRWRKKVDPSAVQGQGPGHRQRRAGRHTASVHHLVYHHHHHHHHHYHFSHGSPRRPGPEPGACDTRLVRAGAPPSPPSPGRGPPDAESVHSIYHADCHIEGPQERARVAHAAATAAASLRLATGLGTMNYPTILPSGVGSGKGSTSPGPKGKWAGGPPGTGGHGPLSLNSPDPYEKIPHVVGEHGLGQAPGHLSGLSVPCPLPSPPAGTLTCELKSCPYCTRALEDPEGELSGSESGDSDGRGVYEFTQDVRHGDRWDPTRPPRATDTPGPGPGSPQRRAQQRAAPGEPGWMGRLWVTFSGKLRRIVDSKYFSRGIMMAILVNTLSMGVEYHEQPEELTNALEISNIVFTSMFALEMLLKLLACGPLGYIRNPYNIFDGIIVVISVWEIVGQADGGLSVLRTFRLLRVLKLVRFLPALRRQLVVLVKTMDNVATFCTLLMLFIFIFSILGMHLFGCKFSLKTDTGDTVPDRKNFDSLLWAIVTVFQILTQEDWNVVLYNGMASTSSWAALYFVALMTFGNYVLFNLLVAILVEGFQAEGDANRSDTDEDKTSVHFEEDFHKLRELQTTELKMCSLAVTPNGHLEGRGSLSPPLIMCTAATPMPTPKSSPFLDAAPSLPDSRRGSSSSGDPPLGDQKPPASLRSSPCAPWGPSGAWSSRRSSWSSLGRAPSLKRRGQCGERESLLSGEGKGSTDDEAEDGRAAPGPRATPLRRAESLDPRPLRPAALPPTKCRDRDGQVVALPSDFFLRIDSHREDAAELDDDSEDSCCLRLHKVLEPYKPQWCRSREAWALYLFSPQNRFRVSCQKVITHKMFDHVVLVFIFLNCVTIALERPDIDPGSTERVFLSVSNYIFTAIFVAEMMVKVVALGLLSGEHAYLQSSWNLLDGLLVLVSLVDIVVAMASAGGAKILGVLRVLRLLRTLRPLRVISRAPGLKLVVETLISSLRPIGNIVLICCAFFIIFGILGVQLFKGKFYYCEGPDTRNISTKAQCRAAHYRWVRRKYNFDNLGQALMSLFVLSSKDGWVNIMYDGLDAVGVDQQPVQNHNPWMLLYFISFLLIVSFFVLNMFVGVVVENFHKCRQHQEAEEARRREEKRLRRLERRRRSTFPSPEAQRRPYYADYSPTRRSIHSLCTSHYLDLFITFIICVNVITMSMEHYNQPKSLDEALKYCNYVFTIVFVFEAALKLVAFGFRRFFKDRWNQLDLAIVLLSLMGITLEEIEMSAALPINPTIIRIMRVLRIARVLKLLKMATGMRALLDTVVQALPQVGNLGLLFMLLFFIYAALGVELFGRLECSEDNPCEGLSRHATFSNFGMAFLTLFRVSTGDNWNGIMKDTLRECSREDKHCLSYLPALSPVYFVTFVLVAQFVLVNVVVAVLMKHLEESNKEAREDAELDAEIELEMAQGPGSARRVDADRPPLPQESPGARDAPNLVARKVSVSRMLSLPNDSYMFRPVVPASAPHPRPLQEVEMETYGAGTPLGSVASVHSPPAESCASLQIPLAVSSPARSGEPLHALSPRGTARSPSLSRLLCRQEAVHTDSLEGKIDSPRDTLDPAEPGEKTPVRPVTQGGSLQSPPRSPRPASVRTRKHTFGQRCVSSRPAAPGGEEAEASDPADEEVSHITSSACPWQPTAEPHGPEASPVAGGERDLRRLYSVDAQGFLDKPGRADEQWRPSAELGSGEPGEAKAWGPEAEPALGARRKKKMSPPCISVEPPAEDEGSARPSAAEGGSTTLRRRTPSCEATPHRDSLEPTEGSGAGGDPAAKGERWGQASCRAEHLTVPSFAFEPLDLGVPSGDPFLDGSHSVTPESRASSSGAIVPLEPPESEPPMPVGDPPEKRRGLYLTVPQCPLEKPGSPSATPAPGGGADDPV
Description: as §8
2) Measurement of T-Type Calcium Channel Activity in HEK293 Cells by Whole-Cell Patch Clamp Electrophysiology
The culture medium was replaced with a fresh one every 3-4 days and the cells were subcultured every week. […] The T-type calcium channel current at single cell level was measured by whole-cell patch clamp electrophysiology using an EPC-9 amplifier (HEKA, Germany). For the T-type calcium channel activity measurement, an extracellular solution (140 mM NaCl, 2 mM CaCl2, 10 mM HEPES, pH 7.4) and an intracellular solution (130 mM KCl, 10 mM HEPES, 11 mM EGTA, 5 mM MgATP, pH 7.4) were used. […] Thereafter, the cell membrane potential was fixed to −100 mV and the inward current evoked by the T-type calcium channel activity was measured every 10 seconds at hypopolarization with −30 mV (50 ms duration). Each compound was dissolved in 100% dimethyl sulfoxide (DMSO) to make a 10 mM stock solution. […] More specifically, the cells were treated with each compound together with the extracellular solution for 30-60 seconds and the % inhibition was determined by calculating the inhibition of peak current induced by the compound.

Structure (SMILES)	effect on mechanically and thermally induced pain [1]	% inhibition for cancer cells HT1080 [2]	% inhibition for cancer cells U87-MG [3]	% inhibition for cancer cells LNCaP [4]	% inhibition for cancer cells KYSE410 [5]	% inhibition for cancer cells A 549 [6]	% inhibition for cancer cells MCF-7 [7]	% inhibition for cancer cells HepG2 [8]	inhibition at 10 µM [9]	inhibition at 10 µM [10]
CCC1(C)CC(=O)NC1=O (centres unmarked) [ethosuximide]	inhibit mechanically and thermally induced pain in a dose-dependent manner	–	–	–	–	–	–	–	–	–
CC(C)Cc1cc(CNC(=O)C2C3CN(CCC(C)(C)C)CC32)nn1-c1ccccc1 (centres unmarked) [Compound 1, 3-[3-(3,3-Dimethylbutyl)-3-azabicyclo[3.1.0]hexane-6-carboxamido]methyl-5-isobutyl-1-phenyl-1H-pyrazole]	–	62.86%	48.10%	34.74%	62.50%	94.52%	94.86%	87.91%	–	–
C#Cc1cccc(Nc2ncnc3cc(OCCOC)c(OCCOC)cc23)c1 [Tarceva, reference compound]	–	83.07%	55.96%	47.12%	36.30%	–	–	–	–	–
COCC(=O)O[C@]1(CCN(C)CCCc2nc3ccccc3[nH]2)CCc2cc(F)ccc2[C@@H]1C(C)C [mibefradil]	inhibit mechanically and thermally induced pain in a dose-dependent manner	–	–	–	–	–	–	–	–	–
CC(C)Cc1cc(CNC(=O)C2C3CN(C(=O)c4ccccc4)CC32)nn1-c1ccccc1 (centres unmarked) [Compound 4, 3-(3-Benzoyl-3-azabicyclo[3.1.0]hexane-6-carboxamido)methyl-5-isobutyl-1-phenyl-1H-pyrazole]	–	75.39%	56.49%	73.31%	56.84%	94.52%	95.00%	89.44%	–	–
CC(C)Cc1cc(C(=O)NCC2C3CN(CCC(C)(C)C)CC23)nn1-c1ccccc1 (centres unmarked) [Compound 7, 3-{2-[3-(3,3-Dimethylbutyl)-3-azabicyclo[3.1.0]hexane-6-yl]methyl}carbamoyl-5-isobutyl-1-phenyl-1H-pyrazole]	–	88.79%	89.43%	49.98%	86.46%	93.14%	94.67%	98.18%	–	–
CC(C)Cc1cc(CNC(=O)C2C3CN(C(=O)Cc4ccccc4)CC32)nn1-c1ccccc1 (centres unmarked) [Compound 5, 5-Isobutyl-1-phenyl-3-[3-(2-phenylacetyl)-3-azabicyclo[3.1.0]hexane-6-carboxamido]methyl-1H-pyrazole]	–	67.10%	45.39%	62.24%	48.62%	94.61%	95.24%	89.16%	81%	89.9%
Cc1ccc(NC(=O)c2ccc(CN3CCN(C)CC3)cc2)cc1Nc1nccc(-c2cccnc2)n1 [Gleevec, reference compound]	–	92.04%	86.51%	82.56%	75.92%	94.17%	95.19%	90.81%	–	–
CC(C)Cc1cc(CNC(=O)C2C3CN(Cc4ccccc4)CC32)nn1-c1ccccc1 (centres unmarked) [Compound 2, 3-(3-Benzyl-3-azabicyclo[3.1.0]hexane-6-carboxamido)methyl-5-isobutyl-1-phenyl-1H-pyrazole]	–	87.79%	86.45%	84.90%	88.75%	–	–	–	–	–
CC(C)Cc1cc(CNC(=O)C2C3CN(CCc4ccc(C(F)(F)F)cc4)CC32)nn1-c1ccccc1 (centres unmarked) [Compound 3, 5-Isobutyl-1-phenyl-3-{3-[4-(trifluoromethyl)phenylethyl]-3-azabicyclo[3.1.0]hexane-6-carboxamido}methyl-1H-pyrazole]	–	87.64%	89.21%	92.29%	92.33%	75.64%	85.44%	67.82%	60.5%	64.6%
